{
  "source": "patent US9879058B2",
  "about": "“Use of compounds that selectively modulate astrocytic release of substances through hemichannels of connexins and pannexins, without influencing gap junctions, for the treatment of psychiatric disorders” (Universidad Andres Bello, priority 2012, dated 2018)",
  "system": "Sprague Dowley rats",
  "assay": "Auditory fear conditioning with microinfusion into the basolateral amygdala",
  "assay_type": "in vivo, rat",
  "procedure": "A. Animals: All procedures involving animals were in accordance to NIH guidelines and with approval of the bioethical committee of the Universidad Andrés Bello. Sprague Dowley rats (˜60 d old, ˜250 g) were caged individually at 22° C., 12/12 h light/dark cycle. The rats remained in their home box throughout the study, and were removed only briefly for drug microinfusion. B. Drugs: TAT-Cx43L2 ([…] (SEQ ID NO: 1), LifeTein, South Plainfield, N.J., USA, >90% purity) was dissolved in PBS to yield final solutions of 1 mM, 100 μM, 10 μM, 1 μM or 100 nM. Unless stated otherwise, the concentration used for microinfusions of TAT-Cx43L2 was 1 mM. As a control, TAT-Cx43L2^H126K/I130N was used at 1 mM. Gap27 (AnaSpec, Fremont, Calif., USA, >95% purity) and Gap27 scramble were dissolved to a final concentration of 1 mM. For the recovery cocktail, 100 mM glutamate (Sigma), D-serine (200 nM), glutamine (100 mM), ATP (100 μM), lactate (10 mM) and glycine (100 nM) were diluted in sterile saline. C. Apparatus: All behavioral essays were performed in a sound attenuating cubicle. Conditioning and tone testing were conducted in different chambers. For conditioning, rats were placed in a Plexiglas chamber with a metal grid floor (40 cm×40 cm×40 cm). The chamber was dimly illuminated by a red light. For testing, rats were placed in a different Plexiglas chamber without the metal grid (60 cm×40 cm) dimly illuminated by a white light bulb. A video camera was mounted at the top of each chamber to allow digital recording throughout the experiments. D. Surgery and histology: Under ketamine/xylazine anesthesia ([…], respectively), rats were stereotaxically implanted with bilateral 22-gauge stainless steel cannulas aimed 1.0 mm above the basolateral amygdala (3.0 mm posterior to Bregma, 5.3 mm lateral to the midline, and 8.0 mm ventral to the skull surface (Paxinos, G., Watson, C. (1998). The Rat Brain in Stereotaxic Coordinates; Press A, editor. San Diego). The cannulas were fixed with acrylic dental cement and secured by 4 skull screws. A stylus was placed inside the guide cannula to prevent clogging. Rats were given at least 7 days to recover before experimental procedures began.\nIn all experiments, stylus was removed from the guide cannula, and a 28-gauge injection cannula was inserted through the guide cannula, extending 1.0 mm beyond its tip into the BLA. Drugs were infused slowly via the injection cannula, connected by PE20 tubing to Hamilton microsyringes driven by a microinfusion pump. Infusions were of 0.25 μl per hemisphere at a rate of 0.32 μl/min. Following drug infusion, injecting cannulaes were left in place for 10 minutes to allow drug diffusion away from the cannula tip. Cannula placement and maximal diffusion was verified by infusing 0.5 μl of India ink in a group of 5 rats. The maximal diffusion spread observed included only lateral and basal amygdala nuclei. At the end of all experiments, animals were anesthetized as above and perfused intracardially with saline, 4% buffered paraformaldehyde. Brains were extracted and postfixed in 30% sucrose until density equaled that of sucrose. […] Animals with histological lesions beyond the size of the cannula tip and guide cannula diameter were excluded from the analysis.\nE. Behavioral procedures: The conditioning is based on the animal learning that a previously neutral stimulus (a conditioned stimulus, CS; e.g. an innocuous sound) becomes predictive of a stressful stimulus (unconditioned stimulus, US; e.g. footshock). In all of experiments, rats were habituated to handling during the 7 recovery days and also habituated to the training and testing chambers for 3 days, 10 min each day. On the conditioning day, the animals were left in the chamber for 3 minutes before beginning of the training. Each training session consisted of 3 CS-US pairings in 30 s intervals. […]",
  "key": {"[1]": {"conditions": "1 mM into BLA 10 min before training"}},
  "note": "“Also recorded” adds a separate entry of the source. No end group written: not given here.",
  "data": [
    {"sequence": "YGRKKRRQRRRDGANVDMHLKQIEIKKFKYGIEEHGK [TAT-Cx43L2, synthetic cell-permeable peptide corresponding to the Cx43L2 region (aa 119-144) of the cytoplasmic loop of Cx43]", "values": [
      {"measurement": "long term fear memory (freezing to tone) 24 h after training", "setting": "[1]", "result": "strongly impaired fear conditioning memory consolidation; also recorded: complete amnesia"},
      {"measurement": "short term memory (freezing to tone between the 3 pairings during training)", "setting": "[1]", "result": "not affected; also recorded: unaffected short term memory"},
      {"measurement": "concentration dependence of amnesic effect", "setting": "microinfusion into BLA", "result": "concentration dependent"},
      {"measurement": "lower concentration still capable of inducing amnesic effects", "setting": "microinfusion into BLA", "result": 10, "unit": "nM"},
      {"measurement": "memory when injected 6 h after training", "setting": "microinjection into BLA 6 h after learning", "result": "had no effects on memory when injected 6 h after training; also recorded: no memory deficits"},
      {"measurement": "learning capacity on retraining", "setting": "retrained 48 h after the initial conditioning", "result": "recovered their capacity to learn; also recorded: recovered their learning capacity"}
    ]}
  ]
}
